Test results: patent US20250312303A1, “ANTICANCER AGENT” (AGC Inc., priority 2022, published 2025)

What was measured:
[1] = tested on: HeLa cells; experiment: SRB assay, relative cell proliferation rate of HeLa cells; assay type: cell-based
Excerpt: (§1) HeLa cells and PANC-1 cells were used as the cancer cells. Both these cells were obtained from ATCC. Further, NHDF cells obtained from Lonza Group Ltd. were used as control non-cancer cells. The culture mediums used were Dulbecco's Modified Eagle Medium (D-MEM, manufactured by FUJIFILM Wako Pure Chemical Corporation) to which 10% FBS had been added (hereinafter also referred to as the “normal medium”), a medium prepared by removing leucine from D-MEM and adding 10% FBS (hereinafter also referred to as the “Leu-removed medium”), and a medium prepared by removing valine from D-MEM and adding 10% FBS (hereinafter also referred to as the “Val-removed medium”).
(§2) The culture cells were inoculated into a 96-well culture plate at a concentration of 3×10^3 cells/well, and following adhesion, were cultured for 24, 48 or 72 hours in the normal medium, the Leu-removed medium or Val-removed medium, or a medium prepared by adding the fluorine-containing amino acid to the Leu-removed medium or Val-removed medium in an amount sufficient to achieve a final concentration of 0.8 mM. Following culturing, the cell proliferation rate was measured by SRB assay. As a control, the cell proliferation rate was measured in a similar manner for cells having a culture time of 0 hours.
(§3) The SRB assays were conducted in the following manner. Following cell culturing, the medium was removed, and 10% (wt/vol) of trichloroacetic acid was added to fix the cells. Subsequently, the fixed cells were washed three times with tap water, and then stained by adding a solution containing 0.4% (wt/vol) of sulforhodamine B dissolved in 1% acetic acid. Following subsequent washing three times with a 1% acetic acid solution, a 10 mM Tris solution was added, and the light absorbance at 540 nm was measured. The 540 nm absorbance value for each sample was used to indicate the cell quantity, and for each sample, the relative cell proliferation rate (%) at a culture time of X hours was determined using the formula below.
(§4) SRB assays were conducted in the same manner as Example 1 with the exceptions of using a medium prepared by removing glutamine from D-MEM and adding 10% FBS (hereinafter also referred to as the “Gln-removed medium”) as the culture medium instead of the Leu-removed medium, using monofluoroglutamine ((2S,4S)Gln(1F) or (2S,4R)Gln(1F)) as the fluorine-containing amino acid, and altering the amount of monofluoroglutamine added to the Gln-removed medium to an amount sufficient to achieve a final concentration of 4 mM.
(§5) SRB assays were conducted in the same manner as Example 1 with the exceptions of using the Gln-removed medium as the culture medium instead of the Leu-removed medium, using difluoroglutamine as the fluorine-containing amino acid, and altering the amount of difluoroglutamine added to the Gln-removed medium to an amount sufficient to achieve a final concentration of 4 mM.

[2] = tested on: PANC-1 cells; experiment: SRB assay, relative cell proliferation rate of PANC-1 cells; assay type: cell-based
Excerpt: as §1, §2, §3, §4, §5

[3] = tested on: NHDF cells; experiment: SRB assay, relative cell proliferation rate of NHDF cells (control non-cancer cells); assay type: cell-based
Excerpt: as §1, §2, §3, §4

[4] = tested on: HeLa cells; experiment: Tumor volume of subcutaneously transplanted HeLa cells in SCID/SCID mice; assay type: in vivo; conditions: for Tumor volume: 5 mg/kg intraperitoneally every day for two weeks starting day 7; for Increase in the size of the tumor tissue compared with the control group: HeLa tumor-bearing SCID/SCID mice, 5 mg/kg intraperitoneally every day for two weeks, result in words
Procedure: First, 0.1 mL samples of an HeLa cell solution with a concentration of 1.0×10^7 cells/mL were transplanted beneath the skin of SCID/SCID (immunodeficient) mice. Starting 7 days after the HeLa cell transplantation, PBS (control group), leucine (5 mg/kg mouse bodyweight) or trifluoroleucine (5 mg/kg mouse bodyweight) was administered intraperitoneally every day for two weeks. The growth of the tumor tissue was observed over time from the time of HeLa transplantation, and the tumor volume (mm^3) was calculated. The tumor volume (mm^3) was calculated from the major diameter (mm) of the tumor tissue and the minor diameter (mm) of the tumor tissue using the formula shown below.
With the exceptions of using monofluoroisoleucine or 5-fluoro-5-methyl-norleucine (CAS RN: 1361228-49-0) instead of the trifluoroleucine, and starting the administration of the PBS, 5-fluoro-5-methyl-norleucine or monofluoroisoleucine 11 days after rather than 7 days after the HeLa cell transplantation, the same procedure as (1) above was used to measure the volume (mm^3) of the tumor formed by the subcutaneously transplanted HeLa cells over time.
(§6) First, 0.1 mL samples of an HeLa cell solution with a concentration of 1.0×10^7 cells/mL were transplanted beneath the skin of SCID/SCID (immunodeficient) mice. Starting 7 days after the HeLa cell transplantation, PBS (control group), glutamine (Gln) (5 mg/kg mouse bodyweight), (2S,4S)Gln(1F) (5 mg/kg mouse bodyweight) or (2S,4R)Gln(1F) (5 mg/kg mouse bodyweight) was administered intraperitoneally every day for two weeks. The growth of the tumor tissue was observed over time from the time of HeLa cell transplantation, and the tumor volume (mm^3) was calculated. The tumor volume (mm^3) was determined in the same manner as that described in Example 2.
as §6, with “mouse bodyweight), or di-F-Gln(F)” for “mouse bodyweight), (2S,4S)Gln(1F) (5 mg/kg mouse bodyweight) or (2S,4R)Gln(1F)”, “bodyweight), or di-F-Gln(F) (5 mg/kg” for “bodyweight) or (2S,4R)Gln(1F) (5 mg/kg”, “of HeLa transplantation, and” for “of HeLa cell transplantation, and”

[5] = Gln-removed medium + 4 mM amino acid, culture time 24 h
[6] = Gln-removed medium + 4 mM amino acid, culture time 48 h
[7] = Gln-removed medium + 4 mM amino acid, culture time 72 h
[8] = 7 days since HeLa cell transplantation
[9] = 9 days since HeLa cell transplantation
[10] = 11 days since HeLa cell transplantation
[11] = 14 days since HeLa cell transplantation
[12] = 16 days since HeLa cell transplantation
[13] = 18 days since HeLa cell transplantation
[14] = 21 days since HeLa cell transplantation
[15] = Leu-removed medium + 0.8 mM amino acid, culture time 24 h
[16] = Leu-removed medium + 0.8 mM amino acid, culture time 48 h
[17] = Leu-removed medium + 0.8 mM amino acid, culture time 72 h, hydrochloride
[18] = Leu-removed medium + 0.8 mM amino acid, culture time 72 h

Row | Compound | Relative cell proliferation rate of HeLa cells [1, 5] | Relative cell proliferation rate of HeLa cells [1, 6] | Relative cell proliferation rate of HeLa cells [1, 7] | Relative cell proliferation rate of PANC-1 cells [2, 5] | Relative cell proliferation rate of PANC-1 cells [2, 6] | Relative cell proliferation rate of PANC-1 cells [2, 7] | Relative cell proliferation rate of NHDF cells [3, 5] | Relative cell proliferation rate of NHDF cells [3, 6] | Relative cell proliferation rate of NHDF cells [3, 7] | Tumor volume [4, 8] | Tumor volume [4, 9] | Tumor volume [4, 10] | Tumor volume [4, 11] | Tumor volume [4, 12] | Tumor volume [4, 13] | Tumor volume [4, 14] | Increase in the size of the tumor tissue compared with the control group [4] | Relative cell proliferation rate of HeLa cells [1, 15] | Relative cell proliferation rate of HeLa cells [1, 16] | Relative cell proliferation rate of PANC-1 cells [2, 15] | further results
1 | NC(=O)[C@@H](F)C[C@H](N)C(=O)O [(2S,4S)-Gln(1F)] | 29.2% | 32.1% | 25.0% | 31.5% | 27.3% | 25.7% | 157.4% | 129.4% | 82.9% | 72.1 mm^3 | 96.9 mm^3 | 149.0 mm^3 | 207.1 mm^3 | 242.3 mm^3 | 357.2 mm^3 | 439.9 mm^3 | dramatically inhibited |  |  |  | 
2 | NC(=O)[C@H](F)C[C@H](N)C(=O)O [(2S,4R)-Gln(1F)] | 46.8% | 21.5% | 23.1% | 65.0% | 34.7% | 25.7% | 132.5% | 46.5% | 26.3% | 74.6 mm^3 | 101.6 mm^3 | 147.2 mm^3 | 219.1 mm^3 | 287.0 mm^3 | 307.7 mm^3 | 431.4 mm^3 | dramatically inhibited |  |  |  | 
3 | CC(CC(N)C(=O)O)C(F)(F)F.Cl (centres unmarked) [Leu(3F), 2-amino-5,5,5-trifluoro-4-methylpentanoic acid hydrochloride] |  |  |  |  |  |  |  |  |  | 135.6 mm^3 |  |  | 200.6 mm^3 |  |  | 704.0 mm^3 | dramatically inhibited | 78.5% | 91.6% | 77.1% | Relative cell proliferation rate of HeLa cells [1, 17]: 89.5%; Relative cell proliferation rate of PANC-1 cells [2, 16]: 87.0%; Relative cell proliferation rate of PANC-1 cells [2, 17]: 75.5%; Relative cell proliferation rate of NHDF cells [3, 15]: 138.5%; Relative cell proliferation rate of NHDF cells [3, 16]: 138.2%; Relative cell proliferation rate of NHDF cells [3, 17]: 185.6%; Relative cell proliferation rate of NHDF cells ([3]; Leu-removed medium + 0.8 mM amino acid, culture time 72 h, listed as trifluoroleucine, hydrochloride): ~200%; Tumor volume ([4]; 10 days since HeLa cell transplantation): 169.4 mm^3; Tumor volume ([4]; 12 days since HeLa cell transplantation): 204.1 mm^3; Tumor volume ([4]; 17 days since HeLa cell transplantation): 315.3 mm^3; Tumor volume ([4]; 19 days since HeLa cell transplantation): 460.2 mm^3
4 | CC(C)(F)C[C@H](N)C(=O)O [Leu(1F), 4-fluoro-L-leucine] |  |  |  |  |  |  |  |  |  |  |  |  |  |  |  |  |  | 82.3% | 90.6% | 67.6% | Relative cell proliferation rate of HeLa cells [1, 18]: 82.0%; Relative cell proliferation rate of PANC-1 cells [2, 16]: 47.9%; Relative cell proliferation rate of PANC-1 cells [2, 18]: 40.9%; Relative cell proliferation rate of NHDF cells [3, 15]: 92.0%; Relative cell proliferation rate of NHDF cells [3, 16]: 66.4%; Relative cell proliferation rate of NHDF cells [3, 18]: 87.7%; Relative cell proliferation rate of NHDF cells ([3]; Leu-removed medium + 0.8 mM amino acid, culture time 72 h, listed as monofluoroleucine): less than 100%
